# Assay results published in patent publication US20260102427A1, “COMPOSITIONS OF NANOPARTICLES FOR TREATMENT OF NEUROPATHIC PAIN” (NANOBIOTIX S.A., priority 2022, published 2026).
# Legend:
# Type in all cases: in vivo, rat
# [1] = system: oxaliplatin-induced mechanical allodynia; experiment: Example 6: mechanical allodynia (von Frey PWT) in oxaliplatin CIPN model, dose effect, left (treated) vs right (vehicle) paw; settings: Pregabalin 30 mg/kg p.o. each test day; both left and right paws
# From the text: Animals were allowed to recover from transportation for at least one week before commencing experiments.
# Data is presented as mean±SEM.
# [2] = system: oxaliplatin-induced mechanical allodynia; experiment: Example 5: mechanical allodynia (von Frey PWT) in oxaliplatin chemotherapy-induced peripheral neuropathy model; settings: Pregabalin 30 mg/kg p.o. each test day, tested 2 hr post dose
# Method: The aim of this study was to investigate the effect of a single intraplantar treatment with Nanoparticles from Example 1 (NP1B) at the dose of 11 g/L, Nanoparticles from Example 2 (NP2B) at 53 g/L, Nanoparticles from Example 3 (NP20B) at 57 g/L, and Nanoparticles from Example 4 (NP20A) at 59 g/L, each in 20 μL of injection volume, on the mechanical allodynia (as assessed using von Frey) that occurs following systemic administration of oxaliplatin in the rat.
# Experimental subjects: Seventy-two (72) adult male Sprague-Dawley rats were used for this study. […]
# (§1) Static mechanical (tactile) allodynia evaluation: Measurement of paw withdrawal threshold (PWT) was achieved using calibrated (force; g) von-Frey monofilaments (Touch-Test Sensory Evaluator; Scientific Marketing Associates) applied to the plantar surface of the hind paw. Withdrawal threshold was determined by increasing and decreasing stimulus intensity and estimated using Dixon's up-down method. […]
# Baseline readings for latency to withdrawal (sec) were assessed on three consecutive days (Day −3, Day −2 and Day −1). […]
# Mechanical allodynia was subsequently re-assessed 2-3 times per week following injection, out to D26 post-oxaliplatin. […]
# [3] = system: STZ-induced mechanical allodynia; experiment: Example 7: mechanical allodynia (von Frey PWT) in streptozotocin diabetes-induced peripheral neuropathy model; settings: Pregabalin 30 mg/kg p.o. 2 hr prior to each Von Frey test
# Method: The aim of the study is to investigate the effect of a single intraplantar treatment with Nanoparticles from Example 3 at the doses of 117 g/L in 20 μL of injection volume, 58 g/L in 20 μL of injection volume, and 18 g/L in 10 μL of injection volume on the mechanical allodynia (as assessed using von Frey) that occurs following systemic administration of Streptozocin in the rat.
# Experimental subjects: Sixty-six (66) adult male Sprague-Dawley rats (180-210 g) were used for this study. […]
# Confirmation of hyperglycaemia: On Day 7 (D7) one drop of tail vein blood was obtained by a needle prick on the conscious rats. The blood glucose levels were measured in one drop of blood using an Exactive Vital (MictoTech Medical) blood glucose monitor. […]
# as §1, with “allodynia:” for “allodynia evaluation:”, “of” for “of paw”, “threshold” for “threshold (PWT)”, “method (Dixon, 1980; Chaplan et al., 1994).” for “method.”
# Von Frey readings are taken at baseline (pre-STZ), at D9 and at D11 post-STZ (neuropathic/allodynia baseline) and 2 hours post dose on D14. Von-Frey readings are repeated twice per week up to 3 weeks post-STZ (1 week post nanoparticles dosing). […]
structure (smiles),measurement,setting,value
CC(C)C[C@H](CN)CC(=O)O [Pregabalin],PWT levels compared to ‘Vehicle/Vehicle’ group (not neuropathic),[1],not significantly different from the ‘Vehicle/Vehicle’ group (not neuropathic) on any of the test days
same,"PWT, allodynic response (positive control)",[2],rescued the allodynic response and recovered the PWT to the healthy baseline levels
same,PWT levels compared to “STZ/Vehicle” group,[3],significantly different from the “STZ/Vehicle” group on all days tested
